pIC50, pKi: −log10 of the molar value. Like-named read-outs stand apart in the source and are kept apart here.
What was measured:
IL-1β, human whole blood = test: Whole blood assay for IL-1β production; assay type: cell-based; conditions: Homo sapiens, Table 17; read-out: Whole human blood IC50
In short: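 Human whole blood collected on Na2EDTA was treated with serially diluted compound in saline and then stimulated with LPS at 5.0 ng/ml final, for 16-18 h at 30 °C, in duplicate or triplicate. Plasma IL-1β was measured by ELISA at 1:200 dilution.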

[1] = tested on: IL-1β production, LPS-challenged mice; test: In vivo acute assay for efficacy as anti-inflammatory agent: LPS-induced IL-1β production in mice; design: species or system mouse; conditions: Mus musculus, po, LPS challenged mice, compound PO, 50 mg/kg, read-out: percent inhibition of IL-1β production
In short: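 CD1 mice (n=6) were challenged with LPS 20 mg/kg IP and given compound IP in olive oil:DMSO:ethanol (90:5:5) 1 h after LPS, or at the time of challenge for some analogs. Blood was taken 7 h after LPS and serum IL-1β was measured by ELISA. Oral gavage at 50 mg/kg was also tested.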

[2] = tested on: IL-1β, human peripheral blood mononuclear cells (PBMC); test: PBMC cell assay: IL-1β assay with human PBMC or enriched adherent mononuclear cells, LPS-stimulated; assay type: cell-based; conditions: Homo sapiens, PBMC
In short: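 Buffy-coat human PBMC at 6×10^6 cells/ml, or adherent monocytes enriched by 1 h adherence (2.5−3.0×10^5 cells/well), are given 5–6 compound dilutions bracketing the ICE Ki (final DMSO 0.1%) plus LPS at a final 5 ng/ml. They are incubated 16–18 hr at 37 °C, 5% CO2, and supernatant mature IL-1β is measured by ELISA, with duplicate cultures and duplicate ELISAs.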

ICE = target: T1, ICE (Homo sapiens, UniProt P29466); test: Enzyme assay with UV-visible substrate (visible ICE assay, Succinyl-Tyr-Val-Ala-Asp-pNitroanilide); assay type: biochemical
T1 sequence (P29466 120-297 limits assumed): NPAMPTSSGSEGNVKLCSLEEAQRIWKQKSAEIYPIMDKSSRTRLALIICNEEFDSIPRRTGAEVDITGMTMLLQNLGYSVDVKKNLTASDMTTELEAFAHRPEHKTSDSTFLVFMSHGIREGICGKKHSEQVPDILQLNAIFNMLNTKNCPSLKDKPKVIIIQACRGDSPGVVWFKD
T1 sequence (P29466 317-404 limits assumed): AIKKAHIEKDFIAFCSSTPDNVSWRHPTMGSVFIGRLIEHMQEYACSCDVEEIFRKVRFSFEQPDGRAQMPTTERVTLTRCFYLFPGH
In short: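 Read-out is the rate of pNA chromophore release (mOD/min, linear fit) monitored at 405-603 nm over 20 min at 37° C. Substrate was succinyl-Tyr-Val-Ala-Asp-pNitroanilide, added after a 15 min room-temperature preincubation of ICE with inhibitor.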

[3] = In vivo rat clearance assay; conditions: plasma, iv
Protocol: In Vivo Rat Clearance Assay
Cannulations of the jugular and carotid vessels of rats under anesthesia were performed one day prior to the pharmacokinetic study. M. J. Free, R. A. Jaffee; ‘Cannulation techniques for the collection blood and other bodily fluids’; in: Animal Models; p. 480-495; N. J. Alexander, Ed.; Academic Press; (1978). Drug (10 mg/mL) was administered via the jugular vein in a vehicle usually consisting of: propylene glycol/saline, containing 100 mM sodium bicarbonate in a 1:1 ratio. Animals were dosed with 10-20 mg drug/kg and blood samples were drawn at 0, 2, 5, 7, 10, 15, 20, 30, 60, and 90 minutes from an indwelling carotid catheter. The blood was centrifuged to plasma and stored at −20° C. until analysis. Pharmacokinetic analysis of data was performed by non-linear regression using standard software such as RStrip (MicroMath Software, UT) and/or Pcnonlin (SCI Software, NC) to obtain clearance values.
Rat plasma was extracted with an equal volume of acetonitrile (containing 0.1% TFA). Samples were then centrifuged at approximately 1,000×g and the supernatant analyzed by gradient HPLC. A typical assay procedure is described below.
A standard curve was run at 20, 10, 5, 2 and 1 μg/mL concentrations.

[4] = Pharmacokinetic studies in the mouse (i.v. clearance, plasma levels); assay type: in vivo; conditions: CD-1, plasma, iv; mouse, 25 mg/kg
Protocol: Pharmacokinetic Studies in the Mouse
Sample Preparation and Dosing
Compounds were dissolved in sterile TRIS solution (0.02M or 0.05M) at a concentration of 2.5 mg/ml. Where necessary to ensure a complete solution, the sample was first dissolved in a minimum of dimethylacetamide (maximum of 5% of total solution volume) then diluted with the TRIS solution.
The drug solution was administered to CD-1 mice (Charles River Laboratories—26-31 g) via the tail vein at a dose volume of 10 ml/kg giving a drug dose of 25 mg/kg.
Mice were dosed in groups of 5 for each timepoint (generally from 2 minutes to 2 hours) then at the appropriate time the animals were anaesthetised with halothane and the blood collected into individual heparinized tubes by jugular severance. The blood samples were cooled to 0° C. then the plasma separated and stored at −20° C. until assayed.
Drug concentration in the plasma samples were determined by HPLC analysis with UV or MS (ESP) detection. Reverse phase chromatography was employed using a variety of bonded phases from C1 to C18 with eluents composed of aqueous buffer/acetonitrile mixtures run under isocratic conditions.
Quantitation was by external standard methods with calibration curves constructed by spiking plasma with drug solutions to give concentrations in the range of 0.5 to 50 μg/ml.
Prior to analysis the plasma samples were deproteinated by the addition of acetonitrile, methanol, trichloroacetic acid or perchloric acid followed by centrifugation at 10,000 g for 10 minutes. Sample volumes of 20 μl to 50 μl were injected for analysis.
The drug was dissolved in sterile 0.02M Tris to give a 2.5 mg/ml solution which was administered to […] of 5 male CD-1 mice via the tail vein at a dose of 25 mg/kg. At each of the following timepoints: 2, 5, 10, 15, 20, 30, 45, 60, 90 and 120 minutes a group of animals was anaesthetised and the blood collected into heparinized tubes. After separation the plasma was stored at −20° C. until assayed.
Aliquots of plasma (150 μl) were treated with 5% perchloric acid (5 μl) then mixed by vortexing and allowed to stand for 90 minutes prior to centrifugation. The resulting supernatant was separated and 20 μl was injected for HPLC analysis.
Aliquots of plasma (100 μl) were diluted with acetonitrile (100 μl) then mixed by vortexing for 20 seconds before centrifugation for 10 minutes. The resulting supernatant was separated and 20 μl was injected for HPLC analysis.

[5] = 0 h, administered 0 h relative to time of LPS challenge
[6] = 2 h, administered −2 h relative to time of LPS challenge
[7] = * = values obtained upon reassay

O=C(O)CC(NC(=O)Cn1c(Cc2ccccc2)ccc(NC(=O)CCc2ccccc2)c1=O)C(=O)COC(=O)c1c(Cl)cccc1Cl (stereo not shown) [Compound 57b, N-2-(6-Benzyl-1,2-dihydro-2-oxo-3-(3-phenylpropionyl)amino-1-pyridyl)acetyl-3-amino-5-(2,6-dichloro-benzoyloxy)-4-oxo-pentanoic acid]
melting point: 116 to 120 °C (dec.)

CC(=O)Nc1ccc(C(=O)N[C@H]2CCC(=O)N3CCC[C@@H](C(=O)N[C@H]4CC(=O)OC4OCc4ccccc4)N3C2=O)cc1 (stereo partly drawn) [Compound 213x, [1S,9S(2RS,3S)]9-[4-(Acetylamino)benzoylamino]-N-(2-benzyloxy-5-oxo-tetrahydrofuran-3-yl)-6,10-dioxo-1,2,3,4,7,8,9,10-octahydro-6H-pyridazino[1,2-a][1,2]diazepine-1-carboximide]
pIC50 (IL-1β, human whole blood): 5.60 | inhibition at 50 mg/kg [1, 5]: 78% | inhibition at 50 mg/kg [1, 6]: 0% | pIC50 ([2]; Table 17): 5.35 | melting point: 150 to 170 °C

O=C[C@H](CC(=O)O)NC(=O)[C@@H]1CCCN2C(=O)CCN(NS(=O)(=O)c3ccc4ccccc4c3)C(=O)N12 [Compound 265a, [3S(4 S)]3-[6,10-Dioxo-7-(2-naphthalenesulfonyl)amino-1,2,3,4,7,8,9,10-octahydro-6H-pyridazino[1,2-a][1,2,4]triazepine-4-carboxamido]-4-oxobutanoic acid]
pIC50 ([2]; Table 17): 4.60 | melting point: 126 to 130 °C (dec.) | pKi (ICE; Table 17): 5.59

O=C[C@H](CC(=O)O)NC(=O)[C@@H]1CCCN2C(=O)CCN(NC(=O)Nc3ccccc3)C(=O)N12 [Compound 265f, [3S(4S)]3-[6,10-Dioxo-1,2,3,4,7,8,9,10-octahydro-7-(3-phenylureido)-6H-pyridazino[1,2-a][1,2,4]triazepine-4-carboxamido]-4-oxobutanoic acid]
clearance ([3]; Table 17): 24 mL/min/kg | melting point: 157 to 162 °C | pKi (ICE; Table 17): 5.92

COC(=O)N[C@H]1CCC(=O)N2CCC[C@@H](C(=O)N[C@@H](CC(=O)O)C(=O)CSc3nnnn3-c3ccccc3)N2C1=O [Compound 280c, [3S(1S,9S)]3-[6,10-Dioxo-9-(methoxycarbonylamino)-1,2,3,4,7,8,9,10-octahydro-6H-pyridazino[1,2-a][1,2]diazepine-1-carboxamido]-4-oxo-5-[5-(1-phenyltetrazolyl)-thio]pentanoic acid]
clearance ([3]; Table 17): 86 mL/min/kg | pIC50 ([2]; Table 17): 5.00 | melting point: 105 to 130 °C

CC(=O)Nc1ccc(C(=O)N[C@H]2CCC(=O)N3CCC[C@@H](C(=O)N[C@H](C=O)CC(=O)O)N3C2=O)cc1 [Compound 418]
clearance ([3]; 10-20 mg/kg): 5.9 mL/min/kg | inhibition at 50 mg/kg [1, 5]: 52% | inhibition at 50 mg/kg ([1]; 1 h, administered +1 h relative to time of LPS challenge): 64% | inhibition at 50 mg/kg [1, 6]: 25% | clearance [4]: 13 mL/min/kg | pKi (ICE; Table 5): 8.66

O=C(O)C[C@H](NC(=O)[C@@H]1CCCN2C(=O)CC[C@H](NC(=O)c3ccccc3)C(=O)N12)C(=O)Cn1cnccc1=O [Compound 510d, [3S(1S,9S)]3-[6,10-Dioxo-1,2,3,4,7,8,9,10-octahydro-9-(phenycarbonylamino)-6H-pyridazino[1,2-a][1,2]diazepine-1-carboxamido]-4-oxo-5-{2-[4(3H)-pyrimidone]}pentanoic acid]
pIC50 ([2]; Table 17): < 4.70 | melting point: 140 to 180 °C | pKi (ICE; Table 17): 5.64

CCOC1OC(=O)C[C@@H]1NC(=O)[C@@H]1CCCN2C(=O)CC[C@H](NC(=O)c3cc4ccccc4[nH]3)C(=O)N12 (stereo partly drawn) [Compound 550o, [1S,9S(2RS,3S)]6,10-Dioxo-N-(2-ethoxy-5-oxotetrahydrofuran-3-yl)-9-(2-indoloylamino)-1,2,3,4,7,8,9,10-octahydro-6H-pyridazino[1,2-a][1,2]diazepine-1-carboxamide]
pIC50 (IL-1β, human whole blood): 5.52 | inhibition at 50 mg/kg [1, 5]: 64% | inhibition at 50 mg/kg [1, 6]: 19% | pIC50 ([2]; Table 17): 6.35 | melting point: 155 to 170 °C

CC(=O)N1C[C@H](NC(=O)c2ccccc2)C(=O)N(CC(=O)N[C@H](C=O)CC(=O)O)c2ccccc21 [Compound 605d, (3S)-3-[(3S)-2-Oxo-3-benzoylamino-5-acetyl-2,3,4,5-tetrahydro-1H-1,5-benzodiazepin-1-acetylamino]-4-oxo-butyric acid]
pIC50 [2, 7]: 5.29 | clearance [4]: 33 mL/min/kg | pKi (ICE; Table 5): 7.02

COC(=O)N1C[C@H](NC(=O)c2ccccc2)C(=O)N(CC(=O)N[C@H](C=O)CC(=O)O)c2ccccc21 [Compound 605j, (3S)-3-[(3S)-2-Oxo-3-benzoylamino-5-methoxycarbonyl-2,3,4,5-tetrahydro-1H-1,5-benzodiazepin-1-acetylamino]-4-oxo-butyric acid]
pIC50 [2, 7]: 5.06 | clearance [4]: 71 mL/min/kg | pKi (ICE; Table 5): 6.96

O=C[C@H](CC(=O)O)NC(=O)[C@@H]1CCCN2C(=O)CCN(NC(=O)c3ccc(O)cc3)C(=O)N12 [Compound 1056, [3S(4S)]3-[6,10-Dioxo-7-(4-hydroxybenzoylamino)-1,2,3,4,7,8,9,10-octahydro-6H-pyridazino[1,2-a][1,2,4]triazepine-4-carboxamido]-4-oxobutanoic acid]
clearance ([3]; Table 17): 17 mL/min/kg | melting point: > 300 °C | pKi (ICE; Table 17): 6.77

O=C1C[C@H](NC(=O)[C@@H]2CCCN3C(=O)CC[C@H](NC(=O)c4ccccc4)C(=O)N23)C(OC2CCCC2)O1 (stereo partly drawn) [Compound 2100l, [1S,9S(2RS,3S)]9-Benzamido-N-(2-cyclopentyloxy-5-oxo-tetrahydrofuran-3-yl)-6,10-dioxo-1,2,3,4,7,8,9,10-octahydro-6H-pyridazino[1,2-a][1,2]diazepine-1-carboxamide]
pIC50 (IL-1β, human whole blood): 5.66 | inhibition at 50 mg/kg [1, 5]: 28% | inhibition at 50 mg/kg [1, 6]: 52% | pIC50 ([2]; Table 17): 6.12 | melting point: 172 to 180 °C

From US20120165319A1, “INHIBITORS OF INTERLEUKIN-1 BETA CONVERTING ENZYME” (VERTEX PHARMACEUTICALS INCORPORATED, priority 1995, published 2012)
